Data on three compounds can be found in ChEMBL document CHEMBL5696442, “Discovery of type II inhibitors of TGFβ-activated kinase 1 (TAK1) and mitogen-activated protein kinase kinase kinase kinase 2 (MAP4K2)” (J Med Chem, 2015).

Active and inactive are the calls of the source. The rule behind the calls is not given here.

Experiment [1] addresses Tyrosine-protein kinase ABL2 (Homo sapiens, UniProt P42684). Put plainly: Inhibition of ABL2 (unknown origin) at 1 uM by Ambit Kinomescan binding assay relative to control; values are per cent of control.
The target of experiment [2] is T1, Kinase suppressor of Ras 1 (Homo sapiens) (UniProt Q8IVT5).
T1 sequence (whole entry): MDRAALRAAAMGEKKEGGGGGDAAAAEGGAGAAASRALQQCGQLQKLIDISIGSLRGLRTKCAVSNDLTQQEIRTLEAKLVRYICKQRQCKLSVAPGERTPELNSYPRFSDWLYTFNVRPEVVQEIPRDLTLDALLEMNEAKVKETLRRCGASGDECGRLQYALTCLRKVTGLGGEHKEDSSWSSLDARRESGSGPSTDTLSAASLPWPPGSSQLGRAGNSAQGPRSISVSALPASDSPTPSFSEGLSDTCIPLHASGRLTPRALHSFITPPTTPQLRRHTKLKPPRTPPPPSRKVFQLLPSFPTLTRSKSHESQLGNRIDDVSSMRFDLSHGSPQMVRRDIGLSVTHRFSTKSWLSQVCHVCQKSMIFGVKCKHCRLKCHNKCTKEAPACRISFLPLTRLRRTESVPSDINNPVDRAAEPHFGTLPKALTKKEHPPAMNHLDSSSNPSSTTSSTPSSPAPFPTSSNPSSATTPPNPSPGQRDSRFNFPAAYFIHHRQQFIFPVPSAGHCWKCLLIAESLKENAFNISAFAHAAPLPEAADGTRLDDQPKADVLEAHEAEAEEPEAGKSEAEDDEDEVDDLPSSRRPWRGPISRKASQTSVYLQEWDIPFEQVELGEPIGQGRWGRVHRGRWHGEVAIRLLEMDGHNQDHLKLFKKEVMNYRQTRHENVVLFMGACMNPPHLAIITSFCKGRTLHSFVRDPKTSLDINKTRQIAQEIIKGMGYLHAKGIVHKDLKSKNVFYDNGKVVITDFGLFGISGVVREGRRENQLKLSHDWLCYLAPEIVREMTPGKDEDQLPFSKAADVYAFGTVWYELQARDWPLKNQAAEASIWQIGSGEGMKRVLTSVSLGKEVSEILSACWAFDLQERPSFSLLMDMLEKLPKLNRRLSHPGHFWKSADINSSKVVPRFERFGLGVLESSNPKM
The experiment can be described thus: Inhibition of KSR1 ACT labeling site harbouring SKNVFYDNGKVVITDFGLFGISGVVR in human A-375 cells at 5 uM by KiNativ Profiling analysis relative to control. The class given is cell-based.

Experiment [3] has as its target Calcium/calmodulin-dependent protein kinase kinase 2 (Homo sapiens) (UniProt Q96RR4). Put plainly: Inhibition of CaMKK2 Lys1 labeling site in human A-375 cells at 0.05 uM by KiNativ Profiling analysis relative to control. It counts as cell-based.
Experiment [4] relates to Receptor-type tyrosine-protein kinase FLT3 (Homo sapiens), P36888 [D835H]. The experiment can be described thus: Inhibition of FLT3 D835H mutant (unknown origin) at 1 uM by Ambit Kinomescan binding assay relative to control; values are per cent of control.
For experiment [5], the target named is Serine/threonine-protein kinase 25 (Homo sapiens) (UniProt O00506). Put plainly: Inhibition of YSK1 (unknown origin) at 1 uM by Ambit Kinomescan binding assay relative to control; values are per cent of control.
Experiment [6] concerns the target RAF proto-oncogene serine/threonine-protein kinase (Homo sapiens, UniProt P04049). Put plainly: Inhibition of RAF1 (unknown origin) at 1 uM by Ambit Kinomescan binding assay relative to control.
Experiment [7] has as its target 1-phosphatidylinositol 3-phosphate 5-kinase (Homo sapiens) (UniProt Q9Y2I7). The experiment can be described thus: Inhibition of PIP5K3 ATP labeling site in human Huh-7 cells at 1 uM by KiNativ Profiling analysis relative to control. It counts as cell-based.
Experiment [8] addresses MAP kinase-interacting serine/threonine-protein kinase 2 (Homo sapiens) (UniProt Q9HBH9). The experiment can be described thus: Inhibition of MKNK2 (unknown origin) at 10 uM by Ambit Kinomescan binding assay relative to control.
Experiment [9] deals with T2, Serine/threonine-protein kinase Sgk3 (Homo sapiens) (UniProt Q96BR1).
T2 sequence (whole entry): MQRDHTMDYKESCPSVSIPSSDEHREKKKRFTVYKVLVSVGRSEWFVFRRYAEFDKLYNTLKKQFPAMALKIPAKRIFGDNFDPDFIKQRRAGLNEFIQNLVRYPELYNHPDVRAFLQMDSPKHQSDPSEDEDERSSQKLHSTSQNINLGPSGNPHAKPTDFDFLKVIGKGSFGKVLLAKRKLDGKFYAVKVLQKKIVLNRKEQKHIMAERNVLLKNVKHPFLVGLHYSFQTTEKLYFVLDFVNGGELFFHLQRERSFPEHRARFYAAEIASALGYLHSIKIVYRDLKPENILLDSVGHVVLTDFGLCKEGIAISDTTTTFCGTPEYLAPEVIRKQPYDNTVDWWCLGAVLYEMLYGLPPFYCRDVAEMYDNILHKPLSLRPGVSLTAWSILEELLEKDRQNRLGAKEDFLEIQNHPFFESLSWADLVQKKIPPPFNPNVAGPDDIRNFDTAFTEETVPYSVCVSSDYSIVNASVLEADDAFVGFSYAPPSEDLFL
The experiment can be described thus: Inhibition of SGK3 Lys1 labeling site in human A-375 cells at 0.05 uM by KiNativ Profiling analysis relative to control. The class given is cell-based.

Experiment [10] has as its target Serine/threonine-protein kinase ATR (Homo sapiens) (UniProt Q13535). The experiment can be described thus: Inhibition of ATR ATP labeling site in human Huh-7 cells at 10 uM by KiNativ Profiling analysis relative to control. The class given is cell-based.
The nature of experiment [11]: Inhibition of […] K2 labeling site in human Huh-7 cells at 1 uM by KiNativ Profiling analysis relative to control. The settings on record: condition cancer.
Experiment [12] deals with T3, Dual specificity mitogen-activated protein kinase kinase 4 (Homo sapiens) (UniProt P45985).
T3 sequence (whole entry): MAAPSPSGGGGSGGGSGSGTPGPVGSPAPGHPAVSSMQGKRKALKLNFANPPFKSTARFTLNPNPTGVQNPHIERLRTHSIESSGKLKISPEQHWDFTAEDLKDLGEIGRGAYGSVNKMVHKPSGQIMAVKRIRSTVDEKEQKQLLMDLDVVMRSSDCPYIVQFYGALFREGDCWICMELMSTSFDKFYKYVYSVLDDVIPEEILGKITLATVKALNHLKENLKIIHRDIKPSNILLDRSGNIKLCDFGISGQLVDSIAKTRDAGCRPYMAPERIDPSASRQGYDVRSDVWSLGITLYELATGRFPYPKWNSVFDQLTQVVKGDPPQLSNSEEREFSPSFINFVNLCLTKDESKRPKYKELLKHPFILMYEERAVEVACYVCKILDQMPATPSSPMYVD
The experiment can be described thus: Inhibition of MAP2K4 Lys2 labeling site in human A-375 cells at 0.05 uM by KiNativ Profiling analysis relative to control. It counts as cell-based.

Experiment [13] deals with Cyclin-dependent kinase 17 (Homo sapiens) (UniProt Q00537). The experiment can be described thus: Inhibition of PCTAIRE2 Lys2 labeling site harbouring DLKPQNLLINEKin human Huh-7 cells at 1 uM by KiNativ Profiling analysis relative to control. It counts as cell-based.
Sequence of Cyclin-dependent kinase 17 (Homo sapiens) (Q00537 whole entry, looked up): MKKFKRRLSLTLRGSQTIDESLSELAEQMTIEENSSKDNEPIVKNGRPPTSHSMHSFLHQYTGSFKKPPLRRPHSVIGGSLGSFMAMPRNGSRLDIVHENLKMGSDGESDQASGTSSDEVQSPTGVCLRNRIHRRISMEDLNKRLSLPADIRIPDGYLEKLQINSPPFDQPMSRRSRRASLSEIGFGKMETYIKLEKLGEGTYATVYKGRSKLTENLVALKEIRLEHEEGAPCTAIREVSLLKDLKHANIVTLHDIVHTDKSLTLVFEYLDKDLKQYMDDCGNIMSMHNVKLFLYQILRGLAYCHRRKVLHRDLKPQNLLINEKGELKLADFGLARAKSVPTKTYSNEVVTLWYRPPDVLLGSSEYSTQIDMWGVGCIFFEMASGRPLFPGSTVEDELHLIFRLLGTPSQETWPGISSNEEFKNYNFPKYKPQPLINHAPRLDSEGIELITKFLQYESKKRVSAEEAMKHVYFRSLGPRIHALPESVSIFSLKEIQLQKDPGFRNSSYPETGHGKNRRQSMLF

Sequence of 1-phosphatidylinositol 3-phosphate 5-kinase (Homo sapiens) (Q9Y2I7 whole entry): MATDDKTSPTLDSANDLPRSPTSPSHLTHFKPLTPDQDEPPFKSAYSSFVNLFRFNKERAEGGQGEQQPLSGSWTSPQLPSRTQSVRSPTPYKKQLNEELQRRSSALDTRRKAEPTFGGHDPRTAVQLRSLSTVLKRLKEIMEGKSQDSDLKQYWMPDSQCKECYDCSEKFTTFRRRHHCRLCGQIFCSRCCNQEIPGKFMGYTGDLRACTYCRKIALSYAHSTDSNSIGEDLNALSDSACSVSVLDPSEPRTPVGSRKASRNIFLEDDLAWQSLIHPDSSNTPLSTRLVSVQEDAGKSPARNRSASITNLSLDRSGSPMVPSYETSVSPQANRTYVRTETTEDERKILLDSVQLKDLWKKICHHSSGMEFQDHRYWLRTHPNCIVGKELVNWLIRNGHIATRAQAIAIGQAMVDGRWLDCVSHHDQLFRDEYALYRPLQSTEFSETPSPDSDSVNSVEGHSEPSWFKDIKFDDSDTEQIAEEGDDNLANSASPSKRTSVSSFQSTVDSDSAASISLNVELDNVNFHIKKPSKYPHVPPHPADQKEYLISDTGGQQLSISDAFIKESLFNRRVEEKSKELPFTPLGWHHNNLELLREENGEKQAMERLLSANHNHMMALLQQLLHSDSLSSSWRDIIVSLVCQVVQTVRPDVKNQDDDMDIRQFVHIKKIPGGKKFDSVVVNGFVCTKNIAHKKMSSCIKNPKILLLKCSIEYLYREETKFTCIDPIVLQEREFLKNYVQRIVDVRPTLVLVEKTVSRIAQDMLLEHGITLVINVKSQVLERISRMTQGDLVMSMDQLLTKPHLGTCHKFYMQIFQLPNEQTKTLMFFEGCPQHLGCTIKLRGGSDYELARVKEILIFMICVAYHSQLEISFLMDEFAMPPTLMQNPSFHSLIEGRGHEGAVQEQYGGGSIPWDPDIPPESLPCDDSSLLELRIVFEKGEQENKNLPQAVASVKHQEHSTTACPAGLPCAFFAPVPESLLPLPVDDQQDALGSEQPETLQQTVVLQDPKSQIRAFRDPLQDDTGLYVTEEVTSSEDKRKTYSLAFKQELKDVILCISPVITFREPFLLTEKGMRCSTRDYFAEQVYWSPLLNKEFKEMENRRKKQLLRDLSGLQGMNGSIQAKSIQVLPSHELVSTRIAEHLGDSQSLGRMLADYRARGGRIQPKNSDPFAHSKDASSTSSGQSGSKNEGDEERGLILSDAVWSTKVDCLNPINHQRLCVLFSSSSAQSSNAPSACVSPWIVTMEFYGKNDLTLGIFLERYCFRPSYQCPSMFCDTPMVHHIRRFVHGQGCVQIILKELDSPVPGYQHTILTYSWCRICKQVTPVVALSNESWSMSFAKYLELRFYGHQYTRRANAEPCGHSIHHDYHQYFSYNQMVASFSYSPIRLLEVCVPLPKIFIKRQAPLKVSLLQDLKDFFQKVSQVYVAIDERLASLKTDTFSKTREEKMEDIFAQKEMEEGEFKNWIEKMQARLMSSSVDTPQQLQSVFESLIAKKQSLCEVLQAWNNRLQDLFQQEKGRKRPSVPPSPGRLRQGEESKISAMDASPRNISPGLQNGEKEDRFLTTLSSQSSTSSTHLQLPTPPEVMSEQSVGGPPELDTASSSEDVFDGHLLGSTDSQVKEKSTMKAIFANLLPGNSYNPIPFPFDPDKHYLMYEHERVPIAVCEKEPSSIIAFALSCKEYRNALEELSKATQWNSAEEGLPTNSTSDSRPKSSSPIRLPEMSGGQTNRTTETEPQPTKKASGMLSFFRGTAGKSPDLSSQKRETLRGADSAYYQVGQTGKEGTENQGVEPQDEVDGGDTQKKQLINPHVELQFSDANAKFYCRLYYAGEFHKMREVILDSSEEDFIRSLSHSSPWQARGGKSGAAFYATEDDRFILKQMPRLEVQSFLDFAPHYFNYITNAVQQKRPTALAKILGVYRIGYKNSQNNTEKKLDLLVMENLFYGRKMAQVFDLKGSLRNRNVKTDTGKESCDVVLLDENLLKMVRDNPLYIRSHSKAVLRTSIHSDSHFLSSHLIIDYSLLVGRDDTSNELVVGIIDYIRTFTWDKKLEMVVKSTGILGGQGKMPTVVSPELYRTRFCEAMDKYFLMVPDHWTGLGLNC
Sequence of Serine/threonine-protein kinase 25 (Homo sapiens) (O00506 whole entry, looked up): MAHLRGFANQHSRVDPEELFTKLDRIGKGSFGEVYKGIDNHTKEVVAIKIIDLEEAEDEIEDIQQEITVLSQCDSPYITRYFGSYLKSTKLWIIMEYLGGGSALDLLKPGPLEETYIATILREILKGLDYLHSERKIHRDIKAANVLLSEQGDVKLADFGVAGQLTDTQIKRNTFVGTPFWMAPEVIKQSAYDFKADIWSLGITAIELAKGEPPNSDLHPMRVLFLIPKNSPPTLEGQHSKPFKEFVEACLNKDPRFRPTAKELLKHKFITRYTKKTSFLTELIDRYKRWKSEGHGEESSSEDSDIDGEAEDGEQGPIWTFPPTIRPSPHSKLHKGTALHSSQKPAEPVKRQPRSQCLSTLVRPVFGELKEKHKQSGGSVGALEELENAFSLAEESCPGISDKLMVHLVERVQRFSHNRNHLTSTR
Sequence of Calcium/calmodulin-dependent protein kinase kinase 2 (Homo sapiens) (Q96RR4 2-588 limits assumed): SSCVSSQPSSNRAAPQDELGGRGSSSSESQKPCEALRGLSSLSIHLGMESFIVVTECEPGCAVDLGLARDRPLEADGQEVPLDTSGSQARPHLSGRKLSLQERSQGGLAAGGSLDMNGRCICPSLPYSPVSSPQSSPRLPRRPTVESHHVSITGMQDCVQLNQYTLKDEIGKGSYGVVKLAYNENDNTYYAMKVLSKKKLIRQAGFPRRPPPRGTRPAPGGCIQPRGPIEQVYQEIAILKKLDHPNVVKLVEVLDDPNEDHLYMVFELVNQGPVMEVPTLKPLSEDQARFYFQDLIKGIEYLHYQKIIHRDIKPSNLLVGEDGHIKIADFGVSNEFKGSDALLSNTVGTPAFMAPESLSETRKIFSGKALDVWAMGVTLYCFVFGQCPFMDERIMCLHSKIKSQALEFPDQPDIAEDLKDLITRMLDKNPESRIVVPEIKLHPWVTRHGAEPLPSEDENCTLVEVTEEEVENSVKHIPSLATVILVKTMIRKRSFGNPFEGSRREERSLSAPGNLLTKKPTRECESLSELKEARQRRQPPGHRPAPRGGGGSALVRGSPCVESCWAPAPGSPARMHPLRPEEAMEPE
Sequence of RAF proto-oncogene serine/threonine-protein kinase (P04049 whole entry): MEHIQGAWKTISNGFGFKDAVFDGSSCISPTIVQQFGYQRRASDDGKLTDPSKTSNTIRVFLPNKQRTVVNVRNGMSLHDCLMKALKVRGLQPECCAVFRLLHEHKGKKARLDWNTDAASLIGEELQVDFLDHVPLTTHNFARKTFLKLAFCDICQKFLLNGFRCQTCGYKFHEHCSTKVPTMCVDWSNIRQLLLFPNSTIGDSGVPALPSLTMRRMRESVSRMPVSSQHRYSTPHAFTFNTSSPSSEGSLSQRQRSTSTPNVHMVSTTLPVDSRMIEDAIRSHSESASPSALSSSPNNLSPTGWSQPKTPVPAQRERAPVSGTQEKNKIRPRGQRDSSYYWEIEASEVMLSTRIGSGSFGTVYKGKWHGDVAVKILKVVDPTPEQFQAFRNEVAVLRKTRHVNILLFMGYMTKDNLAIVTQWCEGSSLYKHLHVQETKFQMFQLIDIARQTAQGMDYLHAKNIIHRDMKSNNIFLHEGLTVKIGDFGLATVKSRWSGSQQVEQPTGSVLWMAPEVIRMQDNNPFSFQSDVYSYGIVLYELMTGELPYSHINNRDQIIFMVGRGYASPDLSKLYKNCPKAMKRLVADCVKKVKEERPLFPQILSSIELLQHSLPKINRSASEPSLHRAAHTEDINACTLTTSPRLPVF
Sequence of MAP kinase-interacting serine/threonine-protein kinase 2 (Homo sapiens) (Q9HBH9 whole entry, looked up): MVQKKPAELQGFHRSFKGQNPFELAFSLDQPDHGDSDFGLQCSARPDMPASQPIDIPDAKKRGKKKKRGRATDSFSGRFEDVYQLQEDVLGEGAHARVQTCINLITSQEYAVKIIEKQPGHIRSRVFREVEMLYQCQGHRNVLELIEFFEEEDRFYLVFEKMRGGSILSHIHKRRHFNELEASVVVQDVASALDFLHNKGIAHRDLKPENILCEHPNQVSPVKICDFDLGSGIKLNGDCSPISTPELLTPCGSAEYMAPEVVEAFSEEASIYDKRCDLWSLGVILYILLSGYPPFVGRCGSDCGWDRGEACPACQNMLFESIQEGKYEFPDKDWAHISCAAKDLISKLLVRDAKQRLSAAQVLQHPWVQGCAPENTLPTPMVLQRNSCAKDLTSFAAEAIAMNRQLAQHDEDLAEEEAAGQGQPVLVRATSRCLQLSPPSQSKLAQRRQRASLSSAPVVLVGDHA

The inhibition is the relative decrease from the control value, in per cent. One may read the residual activity as the activity still measured, relative to the control. A lower residual activity goes with a large loss of activity. As for `CCN1CCN(Cc2ccc(NC(=O)c3ccc(C)c(/C=C/c4cnc5[nH]ccc5c4OC)c3)cc2C(F)(F)F)CC1`, the % of control in [1] was 0.7%. In addition, the inhibition in [2] was determined as 1.7%; in experiment [3], 3.5%; in [6] it was 7.8%. In experiment [4], this compound showed a residual activity of 2.6%. Further, the percent of control in experiment [5] came out at 100%.
Regarding `CCN1CCN(Cc2ccc(NC(=O)c3ccc(C)c(Oc4ccnc5[nH]ccc45)c3)cc2C(F)(F)F)CC1`, the inhibition is -3.1% in [7], 3.5% in [9], 19.8% in experiment [10] and -3.4% in [12]. Further, in experiment [8], the inhibition result was “inactive”. For the same compound, the inhibition at 1 µM in experiment [11] was -16%.
Take `CNc1cc(Oc2cc(C(=O)Nc3cc(N4CCN(C)CC4)cc(C(F)(F)F)c3)ccc2C)ncn1`: the inhibition in experiment [13] was -2.1%.
